Data from PMC8766756, “Insights on Cancer Cell Inhibition, Subcellular Activities, and Kinase Profile of Phenylacetamides Pending 1H-Imidazol-5-One Variants” (Frontiers in Pharmacology, 2022).

What was measured:
EphA8 (P29322) = target: T1, EphA8 (P29322) (Homo sapiens, UniProt P29322); experiment: PamChip tyrosine kinase microarray; assay type: biochemical; details: 0.1 µM, HL60 lysate
T1 construct: purchased PamGene (PamChip PTK array, Upstream Kinase Analysis)
T1 sequence (P29322 28-1005): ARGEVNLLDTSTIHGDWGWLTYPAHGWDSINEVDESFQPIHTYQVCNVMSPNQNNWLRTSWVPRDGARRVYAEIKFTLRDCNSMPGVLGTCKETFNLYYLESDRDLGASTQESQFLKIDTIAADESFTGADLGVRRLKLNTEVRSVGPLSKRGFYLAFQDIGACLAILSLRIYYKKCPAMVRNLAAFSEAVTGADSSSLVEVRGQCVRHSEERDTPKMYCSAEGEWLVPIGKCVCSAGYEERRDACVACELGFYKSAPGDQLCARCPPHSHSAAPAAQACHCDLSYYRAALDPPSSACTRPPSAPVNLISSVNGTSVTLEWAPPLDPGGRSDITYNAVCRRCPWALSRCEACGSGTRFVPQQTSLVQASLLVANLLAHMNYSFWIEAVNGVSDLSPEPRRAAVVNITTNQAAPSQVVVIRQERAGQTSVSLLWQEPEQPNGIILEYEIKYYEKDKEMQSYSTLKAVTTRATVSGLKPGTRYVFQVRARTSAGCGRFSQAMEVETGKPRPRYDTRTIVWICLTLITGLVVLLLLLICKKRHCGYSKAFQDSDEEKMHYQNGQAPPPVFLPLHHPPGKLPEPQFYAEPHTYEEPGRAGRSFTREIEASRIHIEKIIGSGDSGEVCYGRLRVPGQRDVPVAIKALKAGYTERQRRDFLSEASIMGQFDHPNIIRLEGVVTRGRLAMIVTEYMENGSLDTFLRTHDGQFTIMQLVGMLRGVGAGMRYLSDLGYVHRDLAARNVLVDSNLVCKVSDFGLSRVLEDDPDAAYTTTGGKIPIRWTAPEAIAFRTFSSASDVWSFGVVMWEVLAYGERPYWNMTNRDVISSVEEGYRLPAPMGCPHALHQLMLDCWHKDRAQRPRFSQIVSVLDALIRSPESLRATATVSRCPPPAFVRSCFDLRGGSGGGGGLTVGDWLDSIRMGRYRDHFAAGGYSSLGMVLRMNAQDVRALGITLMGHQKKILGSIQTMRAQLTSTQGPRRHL
Summary of the method: (§1)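 HL60 (AML) cell lysate was spiked with compound at 0.001, 0.01, 0.1, 1, 10 and 50 µM, or 2% v/v DMSO as control, then profiled in technical replicates on a tyrosine kinase peptide array of 196 phosphosites. Kinase activity was inferred from peptide-set changes using an upstream kinase tool.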

CTK (P42679) = target: T2, CTK (P42679) (Homo sapiens, UniProt P42679); experiment: PamChip tyrosine kinase microarray; assay type: biochemical; details: 0.1 µM, HL60 lysate
T2 construct: purchased PamGene (PamChip PTK array, Upstream Kinase Analysis)
T2 sequence (P42679 1-507): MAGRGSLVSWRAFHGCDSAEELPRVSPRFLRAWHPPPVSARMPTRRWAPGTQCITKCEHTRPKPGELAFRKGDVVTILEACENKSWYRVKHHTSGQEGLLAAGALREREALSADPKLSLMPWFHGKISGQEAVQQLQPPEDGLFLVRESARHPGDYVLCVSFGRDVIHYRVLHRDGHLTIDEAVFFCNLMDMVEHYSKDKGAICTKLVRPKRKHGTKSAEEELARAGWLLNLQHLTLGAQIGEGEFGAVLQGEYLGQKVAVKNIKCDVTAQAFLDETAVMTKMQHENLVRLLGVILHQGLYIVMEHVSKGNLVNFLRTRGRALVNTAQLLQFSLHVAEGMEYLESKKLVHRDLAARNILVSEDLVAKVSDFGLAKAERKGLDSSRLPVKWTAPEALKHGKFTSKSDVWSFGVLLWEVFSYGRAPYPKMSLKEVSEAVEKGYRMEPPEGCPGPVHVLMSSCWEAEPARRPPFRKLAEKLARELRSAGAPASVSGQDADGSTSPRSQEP
Summary of the method: as §1

COc1ccc(/C=C2\N=C(C)N(c3ccc(CC(=O)NCc4ccccc4)cc3)C2=O)cc1 [Compound 4c, (Z)-N-Benzyl-2-(4-(4-(4-methoxybenzylidene)-2-methyl-5-oxo-4,5-dihydro-1H-imidazol-1-yl)phenyl)acetamide]
Mean Final score (Kinase score) (EphA8 (P29322)): 2.201
Mean Kinase Statistic (EphA8 (P29322)): -0.925
Mean Significance Score (EphA8 (P29322)): 1.989
Mean Specificity Score (EphA8 (P29322)): 0.1251
Mean Final score (Kinase score) (CTK (P42679)): 2.298
Mean Kinase Statistic (CTK (P42679)): -1.147
Mean Significance Score (CTK (P42679)): 2.048
Mean Specificity Score (CTK (P42679)): 0.2322
